ChEMBL document CHEMBL1151451 (Antimicrob Agents Chemother, 2007)
Converted amounts (≈) assume the structure as drawn.

Key:
[1] = tested on: Mycobacterium tuberculosis; experiment: Antimicrobial activity against Mycobacterium tuberculosis H37Rv infected in CD-1 mouse lung; format: functional
[2] = AUC (0 to 24 hrs) in CD-1 mouse at […] administered through gavage; format: ADME, organism-based; settings: plasma, po
[3] = AUC in human at 400 mg, po; format: ADME, organism-based; settings: plasma
[4] = tested on: Mycobacterium tuberculosis; experiment: Antimicrobial activity against Mycobacterium tuberculosis H37Rv infected in CD-1 mouse lung at 75 mg/kg administered through gavage; format: functional
[5] = tested on: Mycobacterium tuberculosis; format: functional
[6] = tested on: Mycobacterium tuberculosis; experiment: Antimicrobial activity against avirulent Mycobacterium tuberculosis H37Ra
[7] = Drug level in CD-1 mouse serum at […] administered through gavage after 24 hrs; format: ADME; settings: po, read-out: Drug uptake
[8] = tested on: Mycobacterium tuberculosis; format: functional; remark: listed apart in the source

**Q.** What does the source list for `COc1c(N2C[C@@H]3CCCN[C@@H]3C2)c(F)cc2c(=O)c(C(=O)O)cn(C3CC3)c12` [MOXIFLOXACIN]?
**A.** log10cfu [1]: 7.87; AUC(0-t) [2]: 27400 ng·h/mL; AUC [3]: 26900 ng·h/mL; log10cfu [4]: 0.93; log10cfu [5]: 8.61; MIC [6]: 0.25 µg/mL (≈ 0.623 µM); concentration at 24 h [7]: 8000 ng/mL; log10cfu [8]: 3.48
